This passage reports Ki and EC50 results from patent US20250304559A1, “Ether-Linked Antiviral Compounds” (Pfizer Inc., priority 2021, published 2025).

Like-named read-outs stand apart in the source and are kept apart here.

The target of assay [1] is T1, SARS-CoV-2 3CL protease (Severe acute respiratory syndrome coronavirus 2, UniProt P0DTD1).
T1 construct: measures the activity of full-length SARS-CoV-2 3CL protease
Put plainly: SARS-CoV-2 Coronavirus 3C Protease FRET Assay. Particulars: Morrison equation fit, 15 nM enzyme, 25 μM peptide substrate. The format is biochemical.

Assay [2] deals with SARS-CoV-2 (USA_WA1/2020). Put plainly: Antiviral Activity from SARS-CoV-2 Infection (cytopathic effect, Cell Titer-Glo). Particulars: VeroE6 cells enriched for hACE2, MOI 0.002, 3-day incubation, tested alone or with P-gp inhibitor CP-100356 2 μM (table does not say which), read-out: Geometric Mean EC50. The format is cell-based. On the technique in general: Cytopathic effects are the visible damage that an infection or toxin causes in cultured cells.

Where [3] appears, read: Examples 14-78 and 114 (second head of Table 2), read-out: Geometric Mean Ki (nM) IC50.
Setting [4] is: Severe acute respiratory syndrome coronavirus 2, Vero C1008, 72 h.
The mark [5] stands for this setting: Examples 1-13, 60 minutes at 23° C., read-out: Geometric Mean Ki.

`CC(C)[C@H](NS(C)(=O)=O)C(=O)N1CCC2(CC2)C[C@H]1C(=O)N[C@@H](C[C@@H]1CCNC1=O)C(=O)COc1ccc(F)cc1F` (single isomer, unassigned) [Example 59, (5R*)-N-{(2S)-4-(2,4-difluorophenoxy)-3-oxo-1-[(3S)-2-oxopyrrolidin-3-yl]butan-2-yl}-6-[N-(methanesulfonyl)-L-valyl]-6-azaspiro[2.5]octane-5-carboxamide, DIAST-1]: the Ki (commonly a dissociation constant, usually derived from enzyme kinetics or from competition with a known ligand) in assay [1] (setting [3]) is 9.27 nM. Further, the EC50 (usually the concentration giving half of the maximal effect) in assay [2] is 299 nM.

Take `CC(C)[C@H](NC(=O)C(F)(F)F)C(=O)N1C[C@H]2[C@@H]([C@H]1C(=O)N[C@@H](C[C@@H]1CCNC1=O)C(=O)COc1nc(C(F)(F)F)nn1C)C2(C)C` [Example 55, (1R,2S,5S)-6,6-dimethyl-N-{(2S)-4-{[1-methyl-3-(trifluoromethyl)-1H-1,2,4-triazol-5-yl]oxy}-3-oxo-1-[(3S)-2-oxopyrrolidin-3-yl]butan-2-yl}-3-[N-(trifluoroacetyl)-L-valyl]-3-azabicyclo[3.1.0]hexane-2-carboxamide]: the Ki in assay [1] (setting [3]) is 11.6 nM. For the same compound, the EC50 in assay [2] (setting [4]) came out at 642 nM.

Turning to `CC(C)[C@H](NS(C)(=O)=O)C(=O)N1CCC2(CC2)C[C@H]1C(=O)N[C@@H](C[C@@H]1CCNC1=O)C(=O)COc1ccc(F)cc1F` (single isomer, unassigned) [Example 66, (5R*)-N-{(2S)-4-(2,4-difluorophenoxy)-3-oxo-1-[(3S)-2-oxopyrrolidin-3-yl]butan-2-yl}-6-[N-(methanesulfonyl)-L-valyl]-6-azaspiro[2.5]octane-5-carboxamide, DIAST-2], the Ki in assay [1] (setting [3]) came to 15.7 nM. The EC50 in assay [2] came to 669 nM.

In the case of `Cn1nc(C(F)(F)F)cc1OCC(=O)[C@H](C[C@@H]1CCNC1=O)NC(=O)[C@@H]1[C@@H]2[C@H](CN1C(=O)[C@@H](NS(C)(=O)=O)C(C)(C)C)C2(C)C` [Example 7, (1R,2S,5S)-6,6-dimethyl-3-[3-methyl-N-(methylsulfonyl)-L-valyl]-N-{(2S)-4-{[1-methyl-3-(trifluoromethyl)-1H-pyrazol-5-yl]oxy}-3-oxo-1-[(3S)-2-oxopyrrolidin-3-yl]butan-2-yl}-3-azabicyclo[3.1.0]hexane-2-carboxamide], in assay [1] (setting [5]), the inhibitory constant (Ki) worked out at 2.88 nM. Further, the EC50 in assay [2] (setting [4]) was determined as 1260 nM.

For `Cn1nc(C(F)(F)F)cc1OCC(=O)[C@H](C[C@@H]1CCNC1=O)NC(=O)[C@@H]1[C@@H]2[C@H](CN1C(=O)[C@@H](NS(=O)(=O)C(F)(F)F)C(C)(C)C)C2(C)C` [Example 6, (1R,2S,5S)-6,6-dimethyl-N-{(2S)-4-{[1-methyl-3-(trifluoromethyl)-1H-pyrazol-5-yl]oxy}-3-oxo-1-[(3S)-2-oxopyrrolidin-3-yl]butan-2-yl}-3-{3-methyl-N-[(trifluoromethyl)sulfonyl]-L-valyl}-3-azabicyclo[3.1.0]hexane-2-carboxamide], the inhibition constant Ki in assay [1] (setting [5]) was found to be 19.8 nM. Moreover, the EC50 in assay [2] (setting [4]) was 735 nM.

In the case of `CCC([C@H](NS(=O)(=O)C(F)(F)F)C(=O)N1C[C@H]2[C@@H]([C@H]1C(=O)N[C@@H](C[C@@H]1CCNC1=O)C(=O)COc1ccc(F)cc1F)C2(C)C)C(F)(F)F` (stereo in doubt) [Example 63, (1R,2S,5S)-N-{(2S)-4-(2,4-difluorophenoxy)-3-oxo-1-[(3S)-2-oxopyrrolidin-3-yl]butan-2-yl}-6,6-dimethyl-3-[3′,3′,3′-trifluoro-N-(trifluoromethanesulfonyl)-L-isoleucyl]-3-azabicyclo[3.1.0]hexane-2-carboxamide], the Ki in assay [1] (setting [3]) came to 54.2 nM. In assay [2] (setting [4]), the EC50 came out at 5550 nM.

For the compound `CC(C)[C@H](NS(C)(=O)=O)C(=O)N1CCC(C)(C)CC1C(=O)N[C@@H](C[C@@H]1CCNC1=O)C(=O)COc1ccc(F)cc1F` (single isomer, unassigned) [Example 60, (2R*)-N-{(2S)-4-(2,4-difluorophenoxy)-3-oxo-1-[(3S)-2-oxopyrrolidin-3-yl]butan-2-yl}-1-[N-(methanesulfonyl)-L-valyl]-4,4-dimethylpiperidine-2-carboxamide], in assay [1] (setting [3]), the Ki amounted to 21.8 nM. In addition, the EC50 in assay [2] (setting [4]) turned out to be 456 nM.

For the compound `CCn1nc(C)cc1OCC(=O)[C@H](C[C@@H]1CCNC1=O)NC(=O)[C@@H]1[C@@H]2[C@H](CN1C(=O)[C@@H](NC(=O)OC)C(C)(C)C)C2(C)C` [Example 33, methyl {(2S)-1-[(1R,2S,5S)-2-({(2S)-4-[(1-ethyl-3-methyl-1H-pyrazol-5-yl)oxy]-3-oxo-1-[(3S)-2-oxopyrrolidin-3-yl]butan-2-yl}carbamoyl)-6,6-dimethyl-3-azabicyclo[3.1.0]hexan-3-yl]-3,3-dimethyl-1-oxobutan-2-yl}carbamate], the Ki in assay [1] (setting [3]) worked out at 3.04 nM. The EC50 in assay [2] (setting [4]) turned out to be 1270 nM.

On to `CC(C)[C@H](NS(=O)(=O)C(F)(F)F)C(=O)N1C[C@H]2[C@@H]([C@H]1C(=O)N[C@@H](C[C@@H]1CCNC1=O)C(=O)COc1cccc(C(F)(F)F)c1)C2(C)C` [Example 5, (1R,2S,5S)-6,6-dimethyl-N-{(2S)-3-oxo-1-[(3S)-2-oxopyrrolidin-3-yl]-4-[3-(trifluoromethyl)phenoxy]butan-2-yl}-3-{N-[(trifluoromethyl)sulfonyl]-L-valyl}-3-azabicyclo[3.1.0]hexane-2-carboxamide], for which, in assay [1] (setting [5]), the Ki was determined as 10.6 nM. Further, the concentration for a half-maximal effect (EC50) in assay [2] (setting [4]) was 205 nM.

For the compound `COCC(=O)[C@H](C[C@@H]1CCNC1=O)NC(=O)C1C[C@H](C(C)(C)C)CCN1C(=O)[C@@H](NS(=O)(=O)C(F)(F)F)C(C)C` (single isomer, unassigned) [Example 77, (2R*,4S*)-4-tert-butyl-N-{(2S)-4-methoxy-3-oxo-1-[(3S)-2-oxopyrrolidin-3-yl]butan-2-yl}-1-[N-(trifluoromethanesulfonyl)-L-valyl]piperidine-2-carboxamide, DIAST-2], the inhibitory constant (Ki) in assay [1] (setting [3]) was greater than 10800 nM. The EC50 in assay [2] (setting [4]) was greater than 100000 nM.

For `COC(=O)N[C@H](C(=O)N1C[C@H]2[C@@H]([C@H]1C(=O)N[C@@H](C[C@@H]1CCNC1=O)C(=O)COc1ccccc1F)C2(C)C)C(C)(C)C` [Example 22, methyl {(2S)-1-[(1R,2S,5S)-2-({(2S)-4-(2-fluorophenoxy)-3-oxo-1-[(3S)-2-oxopyrrolidin-3-yl]butan-2-yl}carbamoyl)-6,6-dimethyl-3-azabicyclo[3.1.0]hexan-3-yl]-3,3-dimethyl-1-oxobutan-2-yl}carbamate], the Ki in assay [1] (setting [3]) came to 4.78 nM. For the same compound, the EC50 in assay [2] (setting [4]) was determined as 52 nM.

In the case of `CC(C)c1cccc(OCC(=O)[C@H](C[C@@H]2CCNC2=O)NC(=O)[C@@H]2[C@@H]3[C@H](CN2C(=O)[C@@H](NC(=O)C(F)(F)F)C(C)C)C3(C)C)c1` [Example 56, (1R,2S,5S)-6,6-dimethyl-N-{(2S)-3-oxo-1-[(3S)-2-oxopyrrolidin-3-yl]-4-[3-(propan-2-yl)phenoxy]butan-2-yl}-3-[N-(trifluoroacetyl)-L-valyl]-3-azabicyclo[3.1.0]hexane-2-carboxamide], in assay [1] (setting [3]), the Ki came out at 14.4 nM. Besides, the EC50 in assay [2] (setting [4]) worked out at 119 nM.

On to `CC(C)[C@H](NC(=O)C(F)(F)F)C(=O)N1C[C@H]2[C@@H]([C@H]1C(=O)N[C@@H](C[C@@H]1CCNC1=O)C(=O)COc1ncnn1-c1ccccc1)C2(C)C` [Example 64, (1R,2S,5S)-6,6-dimethyl-N-{(2S)-3-oxo-1-[(3S)-2-oxopyrrolidin-3-yl]-4-[(1-phenyl-1H-1,2,4-triazol-5-yl)oxy]butan-2-yl}-3-[N-(trifluoroacetyl)-L-valyl]-3-azabicyclo[3.1.0]hexane-2-carboxamide], for which, in assay [1] (setting [3]), the Ki came to 62.2 nM. Also, in assay [2] (setting [4]), the EC50 amounted to 5360 nM.
